Measurements from patent US11161856B2 (H. Lundbeck A/S, priority 2017, dated 2021).

Key:
Format in all cases: biochemical
ABHD6 = target: T1, ABHD6 (Mus musculus, UniProt Q8R2Y0); assay: In vitro competitive activity-based protein profiling, mouse brain proteome (ABHD6); details: mouse brain proteome; concentration not given (μM)
T1 construct: Brain; from tissue; host or cells: mouse brain proteome
T1 sequence (Q8R2Y0 1-336): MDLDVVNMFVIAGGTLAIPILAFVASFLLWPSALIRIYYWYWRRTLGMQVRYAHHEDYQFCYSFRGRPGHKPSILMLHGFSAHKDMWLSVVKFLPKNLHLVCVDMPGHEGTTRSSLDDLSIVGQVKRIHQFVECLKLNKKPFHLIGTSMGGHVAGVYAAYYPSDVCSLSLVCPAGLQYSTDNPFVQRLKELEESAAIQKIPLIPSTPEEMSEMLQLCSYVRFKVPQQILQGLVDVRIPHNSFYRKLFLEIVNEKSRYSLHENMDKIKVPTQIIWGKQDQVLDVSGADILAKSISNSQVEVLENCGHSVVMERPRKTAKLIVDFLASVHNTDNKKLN
Protocol: [The source words this procedure for another target and reports this target under the same test.] (§1) In Vitro Competitive Activity-Based Protein Profiling.
(§2) Proteomes (human prefrontal cortex or cell membrane fractions) (50 μL, 1.0 mg/mL total protein concentration) were preincubated with varying concentrations of inhibitors at 37° C. After 30 min, FP-Rh or HT-01 (1.0 μL, 50 μM in DMSO) was added and the mixture was incubated for another 30 min at room temperature. Reactions were quenched with SDS loading buffer (15 μL-4×) and run on SDS-PAGE.

MGLL = target: T2, MGLL (Mus musculus, UniProt O35678); assay: In vitro competitive activity-based protein profiling, mouse brain proteome (MGLL); details: concentration not given (μM)
T2 construct: Brain; from tissue; host or cells: mouse brain proteome
T2 sequence (O35678 1-303): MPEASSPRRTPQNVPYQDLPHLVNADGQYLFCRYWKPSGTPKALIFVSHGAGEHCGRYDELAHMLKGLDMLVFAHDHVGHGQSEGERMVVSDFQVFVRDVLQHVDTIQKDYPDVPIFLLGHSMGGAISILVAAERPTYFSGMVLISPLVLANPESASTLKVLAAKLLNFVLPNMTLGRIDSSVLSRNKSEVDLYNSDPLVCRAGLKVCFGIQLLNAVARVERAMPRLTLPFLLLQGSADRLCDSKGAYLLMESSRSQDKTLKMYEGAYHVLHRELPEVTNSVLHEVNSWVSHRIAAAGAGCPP

MAGL = target: T3, MAGL (Homo sapiens, UniProt Q99685); assay: In vitro competitive activity-based protein profiling (FP-Rh or HT-01 probe, gel-based); parameters: IC50 MGLL PC3 (Human, μM) / IC50 MGLL PFC (Human, μM): scale not given here; details: for % Inh MGLL PFC (Human, μM): prefrontal cortex (PFC) proteome; for % Inh MGLL PFC (Human, μM) / % Inh MGLL PC3 (Human, μM): concentration not given (μM)
T3 construct: Proteomes (human prefrontal cortex or cell membrane fractions); from tissue
T3 sequence (Q99685 1-303): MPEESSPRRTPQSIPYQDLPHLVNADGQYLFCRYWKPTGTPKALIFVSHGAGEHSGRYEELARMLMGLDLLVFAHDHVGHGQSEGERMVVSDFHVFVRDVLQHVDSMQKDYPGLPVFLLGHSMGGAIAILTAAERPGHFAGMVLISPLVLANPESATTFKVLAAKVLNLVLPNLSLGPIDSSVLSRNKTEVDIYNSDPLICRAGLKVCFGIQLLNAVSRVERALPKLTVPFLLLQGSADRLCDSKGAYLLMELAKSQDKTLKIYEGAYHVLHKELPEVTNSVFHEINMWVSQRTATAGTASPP
Protocol: as §1, §2

Structure (SMILES)	% Inh ABHD6 Brain (Mouse, μM) (ABHD6)	% Inh MGLL Brain (Mouse, μM) (MGLL)	% Inh MGLL PFC (Human, μM) (MAGL)	% Inh MGLL PC3 (Human, μM) (MAGL; PC3 cell proteome)	IC50 MGLL PC3 (Human, μM) (MAGL; PC3 cell proteome)
O=C(O)C1CCN(c2cc(CN3CCC4(CC3)CCN(C(=O)OC(C(F)(F)F)C(F)(F)F)C4)cc(S(F)(F)(F)(F)F)c2)CC1 [Example 226, 1-(3-((2-(((1,1,1,3,3,3-Hexafluoropropan-2-yl)oxy)carbonyl)-2,8-diazaspiro[4.5]decan-8-yl)methyl)-5-(pentafluoro-16-sulfancyl)phenyl)piperidine-4-carboxylic acid]	## (## is between 25 and 75%)	### (### is ≥75%)	### (### is ≥75%)	–	–
CC1(N(CC(=O)O)Cc2ccc(C(F)(F)F)cc2N2CCOCC2)CCN(C(=O)OC(C(F)(F)F)C(F)(F)F)CC1 [Example 124, N-(1-(((1,1,1,3,3,3-Hexafluoropropan-2-yl)oxy)cart>onyl)-4-methylpiperidin-4-yl)-N-(2-morpholino-4-(trifluoromethyl)benzyl) glycine]	# (# is ≤25%)	### (### is ≥75%)	### (### is ≥75%)	–	–
O=C(O)C1CCN(c2cc(Cl)ccc2CN2CC3(CCN(C(=O)OC(C(F)(F)F)C(F)(F)F)CC3)C2)CC1 [Example 122, l-(5-Chloro-2-((7-(((1,1,1,3,3,3-hexafluoropropan-2-yl)oxy)carbonyl)-2,7-diazaspiro[3.5]nonan-2-yl)methyl)phenyl)piperidine-4-carboxylic acid]	# (# is ≤25%)	### (### is ≥75%)	### (### is ≥75%)	–	–
O=C(O)[C@@H]1CCCN(c2cc(CN3CC4(CCN(C(=O)OC(C(F)(F)F)C(F)(F)F)CC4)C3)cc(C(F)(F)F)c2)C1 [Example 105, (R)-1-(3-((7-(((1,1,1,3,3,3-Hexafluoropropan-2-yl)oxy)carbonyl)-2,7-diazaspiro[3,5]nonan-2-yl)methyl)-5-(trifluoromethyl)phenyl) piperidine-3-carboxylic acid]	### (### is ≥75%)	### (### is ≥75%)	### (### is ≥75%)	–	–
CN(Cc1ccccc1C1(C(=O)O)CCCC1)C1(C)CCN(C(=O)OC(C(F)(F)F)C(F)(F)F)CC1 [Example 141, 1-(2-{[(1-{[(1,1,1,3,3,3-Hexafluoropropan-2-yl)oxy]carbonyl}-4-methylpiperidin-4-yl)(methyl)amino]methyl}phenyl)cyclopentane-1-carboxylic acid]	# (# is ≤25%)	### (### is ≥75%)	–	### (### is ≥75%)	–
O=C(O)[C@H]1CCCN(c2cc(C(F)(F)F)ccc2CN2CC3(CCN(C(=O)OC(C(F)(F)F)C(F)(F)F)CC3)C2)C1 [Example 111, (S)-1-(2-((7-(((1,1,1,3,3,3-hexafluoropropan-2-yl)oxy)carbonyl)-2,7-diazaspiro[3,5]nonan-2-yl)methyl)-5-(trifluoromethyl)phenyl) piperidine-3-carboxylic acid]	### (### is ≥75%)	### (### is ≥75%)	### (### is ≥75%)	–	–
O=C(O)C1CCN(c2cc(F)cc(CN3CC4(CCN(C(=O)OC(C(F)(F)F)C(F)(F)F)CC4)C3)c2)CC1 [Example 117, 1-(3-Fluoro-5-((7-(((1,1,1,3,3,3-hexafluoropropan-2-yl)oxy)carbonyl)-2,7-diazaspiro[3.5]nonan-2-yl)methyl)phenyl)piperidine-4-carboxylic acid]	## (## is between 25 and 75%)	### (### is ≥75%)	### (### is ≥75%)	–	–
CN(Cc1ccc(F)cc1C1(C(=O)O)CCCC1)C1(C)CCN(C(=O)OC(C(F)(F)F)C(F)(F)F)CC1 [Example 143, 1-(5-Fluoro-2-{[(1-{[(1,1,1,3,3,3-hexafluoropropan-2-yl)oxy]carbonyl}-4-methylpiperidin-4-yl)(methyl)amino]methyl}phenyl)cyclopentane-1-carboxylic acid]	# (# is ≤25%)	### (### is ≥75%)	–	### (### is ≥75%)	–
CC1(C(=O)O)CCN(c2cc(C(F)(F)F)ccc2CN2CC3(CCN(C(=O)OC(C(F)(F)F)C(F)(F)F)CC3)C2)C1 (stereo not drawn) [Example 115, l-(2-((7-(((1,1,1,3,3,3-Hexafluoropropan-2-yl)oxy)carbonyl)-2,7-diazaspiro[3,5]nonan-2-yl)methyl)-5-(trifluoromethyl)phenyl)-3-methylpyrrolidine-3-carboxylic acid]	# (# is ≤25%)	### (### is ≥75%)	### (### is ≥75%)	–	–
CC(C)(C#Cc1ccccc1CN1CCCC12CCN(C(=O)OC(C(F)(F)F)C(F)(F)F)CC2)C(=O)O [Example 145, 4-{2-[(8-{[(1,1,1,3,3,3-Hexafluoropropan-2-yl)oxy]carbonyl}-1,8-diazaspiro[4.5]decan-1-yl)methyl]phenyl}-2,2-dimethylbut-3-ynoic acid]	# (# is ≤25%)	### (### is ≥75%)	–	### (### is ≥75%)	–
O=C(O)C1CCN(c2cc(S(F)(F)(F)(F)F)ccc2CN2CCC3(CC2)CCN(C(=O)OC(C(F)(F)F)C(F)(F)F)C3)CC1 [Example 222, l-(2-((2-(((1,1,1,3,3,3-Hexafluoropropan-2-yl)oxy)carbonyl)-2,8-diazaspiro[4.5]decan-8-yl)methyl)-5-(pentafluoro-16-sulfaneyl)phenyl)piperidine-4-carboxylic acid]	## (## is between 25 and 75%)	### (### is ≥75%)	### (### is ≥75%)	–	–
CN(Cc1cccc(F)c1C1(C(=O)O)CCCC1)C1(C)CCN(C(=O)OC(C(F)(F)F)C(F)(F)F)CC1 [Example 144, l-(2-Fluoro-6-{[(1-{[(1.1,1,3,3,3-hexafluoropropan-2-yl)oxy]carbonyl}-4-methylpiperidin-4-yl)(methyl)ainino]methyl}phenyl)cyclopentane-1-carboxylic acid]	# (# is ≤25%)	### (### is ≥75%)	–	### (### is ≥75%)	–
O=C(OC(C(F)(F)F)C(F)(F)F)N1CCC2(CCCN2Cc2ccc(C(F)(F)F)cc2C2(C(=O)O)CCCC2)CC1 [Example 7, 1-(2-((8-(((1,1,1,3,3,3-hexafluoropropan-2-yl)oxy)carbonyl)-1,8-diazaspiro[4.5]decan-1-yl)methyl)-5-(trifluoromethyl)phenyl)cyclopentane-1-carboxylic acid]	# (# is ≤25%)	### (### is ≥75%)	### (### is ≥75%)	–	* * *
O=C(O)C1COCCN1c1cc(CN2CC3(CCN(C(=O)OC(C(F)(F)F)C(F)(F)F)CC3)C2)cc(C(F)(F)F)c1 (stereo not shown) [Example 103]	## (## is between 25 and 75%)	### (### is ≥75%)	### (### is ≥75%)	–	–
O=C(O)C1CCN(c2cc(CN3CC4(CCN(C(=O)OC(C(F)(F)F)C(F)(F)F)CC4)C3)cc(C(F)(F)F)c2)C1 (stereo not drawn) [Example 104, l-(3-((7-(((1,1,1,3,3,3-Hexailuoropropan-2-yl)oxy)carbonyl)-2,7-diazaspiro[3.5]nonan-2-yl)methyl)-5-(trifluoromethyl)phenyl) pyrrolidine-3-carboxylic acid]	### (### is ≥75%)	### (### is ≥75%)	### (### is ≥75%)	–	–
O=C(OC(C(F)(F)F)C(F)(F)F)N1CCC2(CC1)CCN(C(=O)c1cc(Cl)cc(C(F)(F)F)c1)C2 [Example 110, 1,1,1,3,3,3-Hexafluoropropan-2-yl 2-(3-chloro-5-(trifluoromethyl)benzoyl)-2,8-diazaspiro[4.5]decane-8-carboxylate]	### (### is ≥75%)	### (### is ≥75%)	### (### is ≥75%)	–	–
